The subject of experiment [1] is PL45. As to the kind of experiment: Cell viability assay (ATP-Lite), PL45. It counts as cell-based. The conditions noted are these: Homo sapiens; PL45, 96 hours. Here is the method: (§1) All cell lines were cultured in media as recommended by American Type Culture Collection (“ATCC”; supplemented with 10% fetal bovine serum (“FBS”) and 1% penicillin/streptomycin (100 IU/ml pencillin and 100 μg/ml streptomycin) at 37° C. and 5% CO2. The cell lines used in these studies included those indicated in Table II below.
(§2) For cell proliferation assays, 45 μl containing 1000 cells per well were seeded into solid white 384-well plates in appropriate cell growth media containing 10% FBS and incubated overnight at 37° C. and 5% CO2. The following day, test compounds were diluted in serum free growth media to 10× desired concentrations and 5 μl was added to each well. Combined compound and cells were incubated for 96 hours. Following incubation, 40 μl of ATP-Lite solution (PerkinElmer, Inc., Waltham, Massachussetts) was added to each well, incubated for an additional 10 minutes at room temperature and luminescence was measured on an EnVision microplate reader. Percent cell viability for test compounds was calculated by comparing treated wells to appropriate controls (e.g. vehicle treated) included on each plate.
(§3) IC50 values are determined using GraphPad Prism 5 software. The data were entered as an X-Y plot into the software as percent inhibition for each concentration of the drug. The concentration values of the drug were log transformed and the nonlinear regression was carried out using the “sigmoidal dose-response (variable slope)” option within the GraphPad software to model the data and calculate IC50 values.
(§4) The ability of compounds to inhibit the viability of cultured cells was determined using the cell viability assay described above. Activity data for representative compounds is shown below in Table IV for the compounds was tested in the indicated cell lines (PL-45, PANC-1, PSN-1, HepG2, and […]). IC50 values were determined as described above. If IC50 value is indicated as “n.d.”, it means that the compound was […] in the indicated cell line. The compound number corresponds to the numbering used in Table I.

In experiment [2] the target is T1, recombinant human Axl kinase (catalytic domain, amino acids 473-894) (Homo sapiens, UniProt P30530).
T1 construct: catalytic domain, amino acids 473-894; purchased Invitrogen Corporation, Carlsbad, Calif
T1 sequence (P30530 473-894): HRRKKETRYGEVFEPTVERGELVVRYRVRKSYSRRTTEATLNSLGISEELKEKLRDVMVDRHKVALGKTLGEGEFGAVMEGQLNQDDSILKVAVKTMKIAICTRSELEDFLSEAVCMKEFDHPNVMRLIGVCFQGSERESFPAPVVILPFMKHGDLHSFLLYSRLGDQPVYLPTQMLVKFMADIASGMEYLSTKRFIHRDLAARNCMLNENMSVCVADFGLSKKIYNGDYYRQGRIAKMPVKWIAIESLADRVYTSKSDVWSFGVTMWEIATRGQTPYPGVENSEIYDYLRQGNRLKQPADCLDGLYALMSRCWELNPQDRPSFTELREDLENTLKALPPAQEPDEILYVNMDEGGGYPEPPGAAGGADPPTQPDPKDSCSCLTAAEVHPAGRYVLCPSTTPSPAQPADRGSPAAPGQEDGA
Nature of the experiment: Axl kinase activity assay (TR-FRET, fluorescein poly-GT substrate). The note with it: 20 μM ATP, 93 ng/ml Axl kinase, 60 min; read-out: IC50 (Axl kinase activity). It counts as biochemical. As to the method: Test compounds were diluted to desired concentrations in kinase reaction buffer (50 mM HEPES pH 7.5, 10 mM MgCl2, 1 mM EGTA, 2 mM DTT, and 0.01% v/v Tween-20) and were briefly incubated with Axl kinase (Invitrogen Corporation, Carlsbad, Calif.). The Axl kinase used was recombinant human Axl kinase (catalytic domain, amino acids 473-894) with a histidine tag. The reaction was initiated by the addition of ATP and fluorescein-labeled poly-GT substrate (poly Glu:Tyr, 4:1 polymer; Invitrogen). Concentration of the various components in the assay (10 μl reaction volume) were: 1% DMSO, 93 ng/ml Axl kinase, 20 μM ATP, and 200 nM fluorescein poly-GT substrate. Following addition of ATP and fluorescein poly-GT substrate, incubation was for 60 min at room temperature, the enzyme reaction is stopped by addition of 10 μl terbium-labeled anti-phosphotyrosine PY20 antibody in EDTA-containing buffer. Final concentration of EDTA and antibody after addition to the reaction is 10 mM and 2 nM, respectively. The terbium conjugated antibody generates a time-resolved FRET signal with the fluorescein molecule (bound to the poly-GT substrate) when the substrate is phosphorylated. After one hour incubation at room temperature, fluorescence was measured with excitation of 320 nm and dual emission of 495 and 520 urn on an EnVision microplate reader (PerkinElmer). Signal is expressed in terms of a TR-FRET ratio (fluorescence intensity at 520 nm to 495 nm).
as §3
(Time-resolved FRET reads energy transfer from a long-lived donor to a nearby acceptor.)

Experiment [3] has as its system PANC-1. Nature of the experiment: Cell viability assay (ATP-Lite), PANC-1. It counts as cell-based. The note with it: Homo sapiens; PANC-1, 96 hours. As to the method:
as §1, §2, §3, §4

The test system of experiment [4] is PSN-1. As to the kind of experiment: Cell viability assay (ATP-Lite), PSN-1. The conditions noted are these: Homo sapiens, PSN1; PSN-1, 96 hours. It counts as cell-based. As to the method: as §1, §2, §3
The ability of compounds to inhibit the viability of cultured cells was determined using the cell viability assay described above. […] IC50 values were determined as described above. If IC50 value is indicated as “n.d.”, it means that the compound was […] in the indicated cell line. The compound number corresponds to the numbering used in Table I.

Experiment [5] concerns A549. As to the kind of experiment: Cell viability assay (ATP-Lite), A549. It counts as cell-based. The note with it: Homo sapiens; A549, 96 hours. Here is the method: as §1, §2, §3, §4
Experiment [6] deals with HepG2. As to the kind of experiment: Cell viability assay (ATP-Lite), HepG2. It counts as cell-based. The conditions noted are these: Homo sapiens; HepG2, 96 hours. Here is the method: as §1, §2, §3, §4

From patent US8901120B2, “Substituted N-phenylpyrimidin-2-amine analogs as inhibitors of the Axl kinase” (University of Utah Research Foundation, priority 2011, dated 2014) come the findings set out here.

As for `CN1CCC(N(C)c2ccc(Nc3ncc(Cl)c(Nc4ccccc4S(=O)(=O)N(C)C)n3)cc2)CC1` [Compound 5], the values for the IC50 in experiment [1], in experiment [2] and in experiment [3] were 370 nM, 56 nM and 80 nM, respectively.
Consider `Cc1cnc(Nc2ccc(N(C)C3CCN(C)CC3)cc2)nc1-c1ccc(F)c(Cl)c1` [Compound 12], for which the IC50 (commonly the concentration needed to halve the response being measured) stood at 6710 nM in experiment [4], 13700 nM in experiment [1], 416 nM in experiment [2] and 10900 nM in experiment [3].
On to `CN1CCN(Cc2ccc(Nc3ncc(Cl)c(Nc4ccccc4S(=O)(=O)N(C)C)n3)cc2)CC1` [Compound 4], for which the concentration for half-maximal inhibition (IC50) in experiment [1] was found to be 48 nM; in experiment [5], 8 nM; in experiment [6] it was 6 nM; in experiment [3], 38 nM.
Consider `Cc1cnc(Nc2ccc(CN3CCN(C)CC3)cc2)nc1-c1cccc(Cl)c1` [Compound 13], for which the IC50 is 2660 nM in experiment [4], 4820 nM in experiment [1], 445 nM in experiment [2] and 7600 nM in experiment [3].
The matching figures for `Cc1cnc(Nc2ccc(CN3CCN(C)CC3)cc2)nc1-c1ccc(C(C)(C)C#N)cc1` [Compound 11]: 2550 nM, 8210 nM, 289 nM and 5780 nM.
The matching figures for `Cc1cnc(Nc2ccc(CN3CCN(C)CC3)cc2)nc1-c1ccc(F)c(Cl)c1` [Compound 14]: 4270 nM, 14400 nM, 730 nM and 7750 nM.
`CN1CCN(Cc2ccc(Nc3ncc(Cl)c(Nc4ccccc4C(=O)NC4CC4)n3)cc2)CC1` [Compound 2]: the IC50 is 64 nM in experiment [4]; 3 nM in experiment [1]; 32 nM in experiment [2]; 3 nM in experiment [5]; 303 nM in experiment [6]; 303 nM in experiment [3].
Take `CN1CCN(Cc2ccc(Nc3ncc(Cl)c(Nc4ccccc4S(=O)(=O)N4CCCC4)n3)cc2)CC1` [Compound 1]: the IC50 in experiment [4] was 2 nM; in experiment [1], 47 nM; in experiment [2] it was 20 nM; in experiment [5], 2 nM; in experiment [6], 121 nM; in experiment [3] it was 34 nM.
Regarding `CN1CCN(Cc2ccc(Nc3ncc(Cl)c(Nc4ccccc4C(=O)N4CCCC4)n3)cc2)CC1` [Compound 6], the concentration for half-maximal inhibition (IC50) in experiment [4] was determined as 21 nM; in experiment [1], 14 nM; in experiment [2], 61 nM; in experiment [5], 7 nM; in experiment [6] it was 194 nM; in experiment [3], 96 nM.
As to `CN1CCN(Cc2ccc(Nc3ncc(Cl)c(-c4ccc(F)cc4S(=O)(=O)N4CCCC4)n3)cc2)CC1` [Compound 9], the half-maximal inhibitory concentration (IC50) in experiment [4] is 192 nM; in experiment [1], 426 nM; in experiment [2], 119 nM; in experiment [5] it was 77 nM; in experiment [6] it was 527 nM; in experiment [3], 481 nM.
Regarding `CN1CCN(Cc2ccc(Nc3ncc(Cl)c(Nc4ccc(F)cc4S(=O)(=O)N4CCCC4)n3)cc2)CC1` [Compound 3], the concentration for half-maximal inhibition (IC50) in experiment [4] was determined as 9 nM; in experiment [1], 17 nM; in experiment [2] it was 37 nM; in experiment [5] it was 4 nM; in experiment [6], 43 nM; in experiment [3] it was 93 nM.
Turning to `CN1CCN(Cc2ccc(Nc3ncc(Cl)c(Nc4ccccc4C(=O)N(C)C)n3)cc2)CC1` [Compound 7], the IC50 in experiment [4] worked out at 70 nM; in experiment [1], 95 nM; in experiment [2] it was 88 nM; in experiment [5] it was 19 nM; in experiment [6], 57 nM; in experiment [3], 142 nM.
